The text below walks through data of patent EP4678638A1, “NEW E3 UBIQUITIN LIGASE LIGAND, PROTEIN DEGRADATION AGENT AND USE THEREOF” (priority 2023, dated 2024).

Assay [1] concerns MM.1S. As to the kind of experiment: CCK-8 proliferation, MM.1S. The format is cell-based. Conditions: Homo sapiens, MM1.S; Table B10, compounds designed based on the IRAK4 inhibitors; MM.1S cells; read-out: Inhibitory activity (IC50, nM) on tumor cell proliferation, MM.1S. The procedure, abridged: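 CCK-8 viability readout; IC50 from growth-inhibition curve fitting. Cells plated, dosed 24h later with a 10-point series, top 10µM, 5-fold steps. Culture at 37°C, 5% CO2.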

Assay [2] deals with T1, IRAK4 (Homo sapiens, UniProt Q9NWZ3).
T1 construct: evaluate the effects of the compounds of the present disclosure on the expression of target proteins in cells; endogenous in cells; host or cells: hPBMC
T1 sequence (Q9NWZ3 1-460): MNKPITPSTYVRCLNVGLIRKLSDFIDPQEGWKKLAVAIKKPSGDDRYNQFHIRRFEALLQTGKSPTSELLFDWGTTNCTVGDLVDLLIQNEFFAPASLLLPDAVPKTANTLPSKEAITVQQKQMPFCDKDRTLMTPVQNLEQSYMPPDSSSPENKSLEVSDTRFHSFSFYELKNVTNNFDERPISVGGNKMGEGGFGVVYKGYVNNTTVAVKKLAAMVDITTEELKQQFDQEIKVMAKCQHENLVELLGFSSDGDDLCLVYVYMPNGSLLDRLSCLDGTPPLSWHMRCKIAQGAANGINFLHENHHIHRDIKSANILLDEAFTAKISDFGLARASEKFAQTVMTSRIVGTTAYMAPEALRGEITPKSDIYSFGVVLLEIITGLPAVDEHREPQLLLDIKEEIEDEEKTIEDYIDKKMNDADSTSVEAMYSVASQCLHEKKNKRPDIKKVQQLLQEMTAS
Description: Western blot degradation of IRAK4 (hPBMC). Type of assay: cell-based. To be noted: Table D1. The procedure, abridged: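 Degradation is assessed by immunoblotting lysates of treated cells. Target bands are quantified by grayscale and normalised to an internal control, so degradation rate equals 100% minus % remaining.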
Background: Immunoblotting shows a protein as a band on a membrane.

Assay [3] deals with SR. As to the kind of experiment: CCK-8 proliferation, SR. The format is cell-based, Human. To be noted: Homo sapiens; Table B10, compounds designed based on the IRAK4 inhibitors; SR cells; read-out: Inhibitory activity (IC50, nM) on tumor cell proliferation, SR. The protocol: The tumor cells used herein were cultured in a cell culture medium listed in table A1 at 37°C in an incubator with 5% CO2. Prior to experimentation, all cell lines used were correctly identified by STR profiling, and tested negative for mycoplasma contamination using a mycoplasma detection kit through routine screenings. Table A1. Tumor cells and cell culture medium used in the present disclosure
IC50 values of the compounds of the present disclosure (including the compounds in Table 1, and compounds of examples) were measured using the Meilun Cell Counting Kit-8 kit from Dalian Meilun Biotech Co., Ltd. Assay details are as follows: tumor cells were seeded in a 96-well plate at a density listed in Table A2. After 24h, 100 µL of the inoculated cells were treated with 0.5µL of the compounds of the present disclosure (including the compounds in Tables 1 and 2, and compounds of examples) at 10 different successively decreasing concentrations (starting at the highest concentration of 10µM; 5-fold serial dilutions). After the cells were treated with the compounds of the present disclosure for a period of time, the cell viability detection reagent was added to the culture medium for cell viability assessment according to the instructions provided with the CCK-8 kit. […] The growth inhibition of the compounds of the present disclosure on cells was plotted by Prism Graphpad software, and the IC50 values of the compounds of the present disclosure were calculated therefrom. […] Seeding protocol and treatment time for tumor cells

In assay [4] the target is T2, ALK (Homo sapiens, UniProt Q96SW2+Q9HC35+Q9UM73).
T2 construct: evaluate the effects of the compounds of the present disclosure on the expression of target proteins in cells; endogenous in cells; host or cells: H2228
Description: Western blot degradation of ALK (H2228 Cell). Type of assay: cell-based. To be noted: Table D5. On the procedure: Conventional Western blot assay was performed to evaluate the effects of the compounds of the present disclosure on the expression of target proteins in cells.
(1) Cell Seeding and Protein Harvesting: The selected cells were processed according to the cell seeding procedure and protein harvesting procedure in Table III-2. Table III-2 Cell Seeding and Protein Harvesting Procedures
(2) To the collected supernatant, 5X SDS sample loading buffer was added, followed by denaturation at 95°C for 5 minutes. The denatured samples were then separated by SDS-PAGE electrophoresis on a polyacrylamide gel. Proteins were transferred to a nitrocellulose membrane (0.45 µm NC membrane), blocked with blocking buffer at room temperature for 1 hour, and subjected to antibody incubation and development procedures according to the antibody manufacturer's instructions (Cell Signaling Technology).
Half-Maximal Degradation Concentration value (the drug concentration required for degrading proteins by 50%, abbreviated as DC50) reads method: comparing the grayscale values of Western blot bands from drug-treated samples with those from blank DMSO-treated controls, and identifying the drug concentration range at which the grayscale value is half that of the DMSO-treated control bands.
DC50 values can be calculated using ImageJ software to measure grayscale values of Western blot bands from drug-treated samples. The concentration-response curve is fitted to estimate the drug concentration corresponding to half the grayscale value.
Target protein remaining (%) refers to the percentage of target protein remaining in hPBMC cells after treatment with protein degrader compounds.
Calculation method for target protein remaining (%): Use ImageJ software to measure grayscale values of Western blot bands from drug (protein degrader)-treated samples. The grayscale value of drug-treated bands is divided by that of internal control protein bands, and the resulting quotient is normalized to obtain the relative percentage of remaining target protein after protein degrader treatment.
Target protein degradation rate (%) = 100% - target protein remaining (%).

T2 sequence (Q9HC35+Q9UM73 fused): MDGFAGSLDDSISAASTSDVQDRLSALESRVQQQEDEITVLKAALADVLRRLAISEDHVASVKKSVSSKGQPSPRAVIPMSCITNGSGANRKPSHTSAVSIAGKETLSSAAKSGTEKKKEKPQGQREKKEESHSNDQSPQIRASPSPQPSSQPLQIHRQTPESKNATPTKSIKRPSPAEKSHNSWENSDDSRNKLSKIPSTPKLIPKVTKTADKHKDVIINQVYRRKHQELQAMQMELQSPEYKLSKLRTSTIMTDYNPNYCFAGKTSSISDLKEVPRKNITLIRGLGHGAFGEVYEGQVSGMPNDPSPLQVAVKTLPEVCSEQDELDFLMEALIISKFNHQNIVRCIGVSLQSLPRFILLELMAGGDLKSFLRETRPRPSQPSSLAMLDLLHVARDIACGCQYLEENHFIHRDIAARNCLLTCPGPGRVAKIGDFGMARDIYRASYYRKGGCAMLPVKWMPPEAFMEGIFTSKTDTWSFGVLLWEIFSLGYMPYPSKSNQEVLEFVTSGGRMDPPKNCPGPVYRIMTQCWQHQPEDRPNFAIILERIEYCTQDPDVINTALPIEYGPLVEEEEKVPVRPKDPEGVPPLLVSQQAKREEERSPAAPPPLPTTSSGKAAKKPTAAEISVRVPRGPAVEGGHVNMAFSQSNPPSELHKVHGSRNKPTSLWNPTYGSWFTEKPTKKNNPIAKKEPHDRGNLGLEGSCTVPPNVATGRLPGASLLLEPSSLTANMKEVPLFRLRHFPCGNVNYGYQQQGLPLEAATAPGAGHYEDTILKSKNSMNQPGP
T2 sequence (Q96SW2 whole entry): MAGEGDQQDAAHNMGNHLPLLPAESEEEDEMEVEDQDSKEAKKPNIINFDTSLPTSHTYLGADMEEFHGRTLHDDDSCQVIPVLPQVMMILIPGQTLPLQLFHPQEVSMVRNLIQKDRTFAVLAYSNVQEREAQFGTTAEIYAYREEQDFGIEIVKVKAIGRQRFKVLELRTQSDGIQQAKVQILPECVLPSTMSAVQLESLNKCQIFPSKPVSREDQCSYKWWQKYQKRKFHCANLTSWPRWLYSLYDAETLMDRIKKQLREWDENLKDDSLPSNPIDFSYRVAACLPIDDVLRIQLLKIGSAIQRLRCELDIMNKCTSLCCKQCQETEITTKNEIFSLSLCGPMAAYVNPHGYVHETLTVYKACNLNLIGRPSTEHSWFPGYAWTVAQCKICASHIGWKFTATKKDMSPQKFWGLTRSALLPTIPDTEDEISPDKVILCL
T2 sequence (Q16531 whole entry partner): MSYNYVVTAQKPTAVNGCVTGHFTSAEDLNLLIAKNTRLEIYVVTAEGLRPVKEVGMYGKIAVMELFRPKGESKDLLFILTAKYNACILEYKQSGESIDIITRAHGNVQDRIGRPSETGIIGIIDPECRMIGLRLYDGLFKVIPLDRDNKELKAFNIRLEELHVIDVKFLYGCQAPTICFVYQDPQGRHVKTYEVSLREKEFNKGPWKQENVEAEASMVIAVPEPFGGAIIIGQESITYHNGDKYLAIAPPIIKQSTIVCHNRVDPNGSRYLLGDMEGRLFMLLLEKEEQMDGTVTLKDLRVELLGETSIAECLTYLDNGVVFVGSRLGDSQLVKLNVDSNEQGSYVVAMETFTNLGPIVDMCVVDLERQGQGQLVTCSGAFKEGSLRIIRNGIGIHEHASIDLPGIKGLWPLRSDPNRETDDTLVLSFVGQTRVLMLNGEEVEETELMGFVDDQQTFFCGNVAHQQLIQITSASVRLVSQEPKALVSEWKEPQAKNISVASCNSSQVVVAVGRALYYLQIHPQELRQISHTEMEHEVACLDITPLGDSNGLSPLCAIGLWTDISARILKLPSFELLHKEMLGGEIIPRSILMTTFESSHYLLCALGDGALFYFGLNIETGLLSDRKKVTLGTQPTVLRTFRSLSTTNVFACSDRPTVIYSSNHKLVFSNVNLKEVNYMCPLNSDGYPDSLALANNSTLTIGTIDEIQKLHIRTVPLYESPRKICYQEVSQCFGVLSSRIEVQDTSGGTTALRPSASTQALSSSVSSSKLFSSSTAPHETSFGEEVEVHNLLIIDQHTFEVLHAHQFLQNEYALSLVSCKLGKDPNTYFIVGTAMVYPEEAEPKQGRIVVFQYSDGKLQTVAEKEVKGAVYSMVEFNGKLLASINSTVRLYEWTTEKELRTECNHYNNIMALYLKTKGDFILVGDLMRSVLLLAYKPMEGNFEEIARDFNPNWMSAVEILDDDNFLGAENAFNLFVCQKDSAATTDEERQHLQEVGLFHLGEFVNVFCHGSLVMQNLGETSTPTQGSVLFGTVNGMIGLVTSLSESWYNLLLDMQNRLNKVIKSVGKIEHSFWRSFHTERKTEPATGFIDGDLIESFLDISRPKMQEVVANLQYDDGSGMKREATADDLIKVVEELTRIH

For the compound `O=C1CCN(c2ccc(CN3CCC(n4cc(NC(=O)c5coc(-c6ccnc(NCC7CC7)c6)n5)c(C(F)F)n4)CC3)cc2)C(=O)N1` [GT-04956, 2-(2-((cyclopropylmethyl)amino)pyridin-4-yl)-N-(3-(difluoromethyl)-1-(1-(4-(2,4-dioxotetrahydropyrimidin-1(2H)-yl)benzyl)piperidin-4-yl)-1H-pyrazol-4-yl)oxazole-4-carboxamide], the IC50 in assay [1] was 100 to 500 nM. The “Degradation of substrate protein IRAK4 (substrate protein remaining %)” value in assay [2] is given as “A (A is defined as 0% ≤ substrate protein remaining % ≤ 80%)”.

Take `O=C1CCN(c2ccc(CN3CCC(n4cc(NC(=O)c5coc(-c6ccnc(NCC7CC7)c6)n5)c(C(F)F)n4)CC3)nc2)C(=O)N1` [GT-04958, 2-(2-((cyclopropylmethyl)amino)pyridin-4-yl)-N-(3-(difluoromethyl)-1-(1-((5-(2,4-dioxotetrahydropyrimidin-1(2H)-yl)pyridin-2-yl)methyl)piperidin-4-yl)-1H-pyrazol-4-yl)oxazole-4-carboxamide]: in assay [1], the IC50 lay within 100 to 500 nM. The “Degradation of substrate protein IRAK4 (substrate protein remaining %)” value in assay [2] is given as “A (A is defined as 0% ≤ substrate protein remaining % ≤ 80%)”.

Turning to `O=C1CCC(Nc2cccc(CN3CCN(Cc4ccc5c(c4)nc(NC(=O)c4cccc(C(F)(F)F)c4)n5C4CCC(CO)CC4)CC3)c2)C(=O)N1` (stereo not drawn) [GT-04976, N-(5-((4-(3-((2,6-dioxopiperidin-3-yl)amino)benzyl)piperazin-1-yl)methyl)-1-((1s,4s)-4-(hydroxymethyl)cyclohexyl) -1H-benzo[d]imidazol-2-yl)-3-(trifluoromethyl)benzamide], the IC50 in assay [1] and in assay [3] was 100 to 500 nM in each case. In assay [2], the “Degradation of substrate protein IRAK4 (substrate protein remaining %)” value is “A (A is defined as 0% ≤ substrate protein remaining % ≤ 80%)”.

Take `O=C1CCN(c2cccc(CN3CCN(Cc4ccc5c(c4)nc(NC(=O)c4cccc(C(F)(F)F)c4)n5[C@H]4CC[C@@H](CO)CC4)CC3)c2)C(=O)N1` [GT-04977, N-(5-((4-(3-(2,4-dioxotetrahydropyrimidin-1(2H)-yl)benzyl)piperazin-1-yl)methyl)-1-((1s,4s)-4-(hydroxymethyl)cyclohexyl) -1H-benzo[d]imidazol-2-yl)-3-(trifluoromethyl)benzamide]: the IC50 in assay [1] and in assay [3] was 100 to 500 nM throughout. The “Degradation of substrate protein IRAK4 (substrate protein remaining %)” value in assay [2] is listed as “A (A is defined as 0% ≤ substrate protein remaining % ≤ 80%)”.

As to `COc1cc(N2CCN(Cc3cc(N4CCC(=O)NC4=O)cnc3F)CC2)ccc1Nc1ncc(Cl)c(Nc2ccccc2P(C)(C)=O)n1` [GT-07748, 1-(5-((4-(4-((5-chloro-4-((2-(dimethylphosphoryl)phenyl)amino)pyrimidin-2-yl)amino)-3-methoxyphenyl)piperazin-1-yl)methyl)-6-fluoropyridin-3-yl)dihydropyrimidine-2,4(1H,3H)-dione], the “Degradation of substrate protein ALK (substrate protein remaining %)” value in assay [4] was “A (A is defined as 0% ≤ substrate protein remaining % ≤ 80%)”.

Turning to `COc1cc(N2CCN(Cc3cnc(N4CCC(=O)NC4=O)cn3)CC2)ccc1Nc1ncc(Cl)c(Nc2ccccc2P(C)(C)=O)n1` [GT-07749, 1-(5-((4-(4-((5-chloro-4-((2-(dimethylphosphoryl)phenyl)amino)pyrimidin-2-yl)amino)-3-methoxyphenyl)piperazin-1-yl)methyl)pyrazin-2-yl)dihydropyrimidine-2,4(1H,3H)-dione], the “Degradation of substrate protein ALK (substrate protein remaining %)” value in assay [4] is given as “A (A is defined as 0% ≤ substrate protein remaining % ≤ 80%)”.

For the compound `COc1cc(N2CCC(N(C)Cc3cc(N4CCC(=O)NC4=O)cnc3F)CC2)ccc1Nc1ncc(Cl)c(Nc2ccccc2P(C)(C)=O)n1` [GT-07750, 1-(5-(((1-(4-((5-chloro-4-((2-(dimethylphosphoryl)phenyl)amino)pyrimidin-2-yl)amino)-3-methoxyphenyl)piperidin-4-yl)(methyl)amino)methyl)-6-fluoropyridin-3-yl)dihydropyrimidine-2,4(1H,3H)-dione], the “Degradation of substrate protein ALK (substrate protein remaining %)” value in assay [4] is reported as “A (A is defined as 0% ≤ substrate protein remaining % ≤ 80%)”.

For the compound `COc1cc(N2CCC(N(C)Cc3cnc(N4CCC(=O)NC4=O)cn3)CC2)ccc1Nc1ncc(Cl)c(Nc2ccccc2P(C)(C)=O)n1` [GT-07751, 1-(5-(((1-(4-((5-chloro-4-((2-(dimethylphosphoryl)phenyl)amino)pyrimidin-2-yl)amino)-3-methoxyphenyl)piperidin-4-yl)(methyl)amino)methyl)pyrazin-2-yl)dihydropyrimidine-2,4(1H,3H)-dione], the “Degradation of substrate protein ALK (substrate protein remaining %)” value in assay [4] is given as “A (A is defined as 0% ≤ substrate protein remaining % ≤ 80%)”.

Regarding `CCc1cc2c(cc1N1CCC(N3CCN(Cc4cc(N5CCC(=O)NC5=O)cnc4F)CC3)CC1)C(C)(C)c1[nH]c3cc(C#N)ccc3c1C2=O` [GT-07755, 8-(4-(4-((5-(2,4-dioxotetrahydropyrimidin-1(2H)-yl)-2-fluoropyridin-3-yl)methyl)piperazin-1-yl)piperidin-1-yl)-9-ethyl-6,6-dimethyl-11-oxo-6,11-dihydro-5H-benzo[b]carbazole-3-carbonitrile], in assay [4], the “Degradation of substrate protein ALK (substrate protein remaining %)” value is recorded as “A (A is defined as 0% ≤ substrate protein remaining % ≤ 80%)”.

For `CCc1cc2c(cc1N1CCC(N3CCN(Cc4cnc(N5CCC(=O)NC5=O)cn4)CC3)CC1)C(C)(C)c1[nH]c3cc(C#N)ccc3c1C2=O` [GT-07756, 8-(4-(4-((5-(2,4-dioxotetrahydropyrimidin-1(2H)-yl)pyrazin-2-yl)methyl)piperazin-1-yl)piperidin-1-yl)-9-ethyl-6,6-dimethyl-11-oxo-6,11-dihydro-5H-benzo[b]carbazole-3-carbonitrile], the “Degradation of substrate protein ALK (substrate protein remaining %)” value in assay [4] was “A (A is defined as 0% ≤ substrate protein remaining % ≤ 80%)”.

Turning to `Cc1cc(Nc2ncc(Cl)c(Nc3ccccc3S(=O)(=O)C(C)C)n2)c(OC(C)C)cc1C1CCN(Cc2cnc(N3CCC(=O)NC3=O)cn2)CC1` [GT-07758, 1-(5-((4-(4-((5-chloro-4-((2-(isopropylsulfonyl)phenyl)amino)pyrimidin-2-yl)amino)-5-isopropoxy-2-methylphenyl)piperidin-1-yl)methyl)pyrazin-2-yl)dihydropyrimidine-2,4(1H,3H)-dione], the “Degradation of substrate protein ALK (substrate protein remaining %)” value in assay [4] is recorded as “A (A is defined as 0% ≤ substrate protein remaining % ≤ 80%)”.

Take `CCc1cc2c(cc1N1CCN(Cc3cc(N4CCC(=O)NC4=O)ncc3F)CC1)C(C)(C)c1[nH]c3cc(C#N)ccc3c1C2=O` [GT-07833, 8-(4-((2-(2,4-dioxotetrahydropyrimidin-1(2H)-yl)-5-fluoropyridin-4-yl)methyl)piperazin-1-yl)-9-ethyl-6,6-dimethyl-11-oxo-6,11-dihydro-5H-benzo[b]carbazole-3-carbonitrile]: the “Degradation of substrate protein ALK (substrate protein remaining %)” value in assay [4] is given as “A (A is defined as 0% ≤ substrate protein remaining % ≤ 80%)”.
